Test results as given in patent US10314803B2, “Pharmaceutical composition comprising eicosapentaenoic acid and nicotinic acid and methods of using same” (Amarin Pharmaceuticals Ireland Limited, priority 2008, dated 2019).

Test system: RBC arachidonic acid
Assay: Red blood cell (RBC) EPA incorporation and arachidonic acid analysis in patients given ethyl-EPA
Assay type: in vivo, human
Settings: patients, 0.5, 1, 2 or 4 g of 97% pure ethyl-EPA/day for 12 weeks; FIG. 1, average of several clinical studies
Procedure: An analysis was performed to assess the impact of red blood cell (RBC) EPA incorporation on arachidonic acid formation. In various studies, patients were randomized, on a double-blind basis, to receive either placebo (liquid paraffin) or 0.5 1, 2 or 4 g of 97% pure ethyl-EPA/day for 12 weeks. All the doses were administered in eight identical appearing capsules. RBCs were analyzed for EPA and AA following in general the methodology of Manku et al. M. S. Manku, D. F. Horrobin, Y. S. Huang and N. Morse, Fatty acids in plasma and red cell membranes in normal humans. Lipids 18 (1983), pp. 906-908).
Venous blood was collected into a tube pretreated with EDTA and centrifuged at 1500 gav for 15 min. The plasma layer and the buffy coat were separated off and the red cells washed with an equal volume of 0.9% saline. Samples were stored at −80° C. prior to analysis. On thawing, the RBCs were suspended in NaCL/H2SO4aq. (17 mmol/l NaCl, 1 mmol/l Sulfuric acid, 1.8 ml), then shaken with methanol (3 ml). Chloroform (6 ml) and C17:O internal standard were added and the sample was stirred vigorously using a vortex mixer. […] The resulting methyl esters of the fatty acids were separated and measured using a Hewlett-Packard HP5890 Series II Plus Gas chromatograph (cp-wax 52CB 25 m capillary column, Chrompack UK). […]

SMILES: CC/C=C\C/C=C\C/C=C\C/C=C\C/C=C\CCCC(=O)OCC [EPA, eicosapentaenoic acid ethyl ester]
- RBC EPA: increased
